Tests used:
KAI1 promoter = KAI1 promoter luciferase reporter assay in transfected Caco2 cells; format: cell-based, human; conditions: Homo sapiens, Caco-2, 16 h, 1 μM compound, 16 hours, transfected Caco2 cells, luciferase activity relative to DMSO control (=1); read-out: Relative KAI promoter activity
[1] = tested on: invasion of colorectal cancer cells; assay: In vivo relative invation (invasion; EV and KITENIN controls, no method described); conditions: relative to EV (=1); KIT = KITENIN

| SMILES | fold induction at 1 µM (KAI1 promoter) | In vivo relative invation [1] |
| --- | --- | --- |
| CN(C)c1ccc(C(=O)CNC(=O)c2cc(Cl)cc(Cl)c2)cc1 [Example 117, 3,5-dichloro-N-(2-(4-(dimethylamino)phenyl)-2-oxoethyl)benzamide] | 1.32 | 1.076 |
| CN(C)c1ccc(C(=O)CNC(=O)c2cccc(Cl)c2Cl)cc1 [Example 118, 2,3-dichloro-N-(2-(4-(dimethylamino)phenyl)-2-oxoethyl)benzamide] | 1.74 | 0.7681 |
| CN(C)c1ccc(C(=O)CNC(=O)c2ccc(OC(F)(F)F)cc2)cc1 [Example 119, N-(2-(4-(dimethylamino)phenyl)-2-oxoethyl)-4-(trifluoromethoxy)benzamide] | 1.35 | 1.203 |
| Cc1cc(C)cc(C(=O)NCC(=O)c2ccc(N(C)C)cc2)c1 [Example 120, N-(2-(4-(dimethylamino)phenyl)-2-oxoethyl)-3,5-dimethylbenzamide] | 1.38 | 1.097 |
| COc1cc(OC)cc(C(=O)NCC(=O)c2ccc(N(C)C)cc2)c1 [Example 121, N-(2-(4-(dimethylamino)phenyl)-2-oxoethyl)-3,5imethoxybenzamide] | 0.96 | 1.203 |
| COc1cccc(C(=O)CNC(=O)c2ccc(Cl)cc2)c1 [Example 122, 4-chloro-N-(2-(3-methoxyphenyl)-2-oxoethyl)benzamide] | 1.65 | 1.374 |
| C/C=C/C(=O)NCC(=O)c1cccc(OC)c1 [Example 123, (E)-N-(2-(3-methoxyphenyl)-2-oxoethyl)but-2-enamide] | 1.14 | 1.312 |
| CCC(=O)NCC(=O)c1cccc(OC)c1 [Example 124, N-(2-(3-methoxyphenyl)-2-oxoethyl) propionamide] | 1.04 | 1.266 |
| COc1cccc(C(=O)CNC(=O)C2CC2)c1 [Example 125, N-(2-(3-methoxyphenyl)-2-oxoethyl)cyclopropanecarboxamide] | 1.48 | 0.8965 |
| COc1cccc(C(=O)CNC(=O)C2CCC2)c1 [Example 126, N-(2-(3-methoxyphenyl)-2-oxoethyl)cyclobutanecarboxamide] | 1.08 | 1.352 |
| COc1cccc(C(=O)CNC(=O)c2cccs2)c1 [Example 127, N-(2-(3-methoxyphenyl)-2-oxoethyl)thiophene-2-carboxamide] | 2.46 | 1.351 |
| CCCCC(=O)NCC(=O)c1cccc(OC)c1 [Example 128, N-(2-(3-methoxyphenyl)-2-oxoethyl)pentanamide] | 1.1 | 1.179 |
| COc1cccc(C(=O)CNS(=O)(=O)c2ccccc2)c1 [Example 129, N-(2-(3-methoxyphenyl)-2-oxoethyl)benzenesulfonamide] | 1.3 | 1.298 |
| O=C(CNC(=O)c1ccc(Cl)cc1)c1cccnc1 [Example 130, 4-chloro-N-(2-oxo-2-(pyridin-3-yl)ethyl)benzamide] | 1.32 | 0.9875 |
| CC(Oc1ccccc1)C(=O)NCC(=O)c1cccnc1 (stereo not shown) [Example 131, N-(2-oxo-2-(pyridin-3-yl)ethyl)-2-phenoxypropanamide] | 1.19 | 1.293 |
| O=C(CNC(=O)c1ccccc1F)c1cccnc1 [Example 132, 2-fluoro-N-(2-oxo-2-(pyridin-3-yl)ethyl)benzamide] | 1.18 | 1.226 |
| O=C(CNC(=O)c1ccc(F)cc1)c1cccnc1 [Example 133, 4-fluoro-N-(2-oxo-2-(pyridin-3-yl)ethyl)benzamide] | 1.15 | 1.32 |
| C/C=C/C(=O)NCC(=O)c1cccnc1 [Example 134, (E)-N-(2-oxo-2-(pyridin-3-yl)ethyl)but-2-enamide] | 1.09 | 1.297 |
| Cc1ccccc1C(=O)NCC(=O)c1cccnc1 [Example 135, 2-methyl-N-(2-oxo-2-(pyridin-3-yl)ethyl)benzamide] | 1.3 | 1.485 |
| CCC(=O)NCC(=O)c1cccnc1 [Example 136, N-(2-oxo-2-(pyridin-3-yl)ethyl) propionamide] | 1.17 | 1.297 |
| O=C(CNC(=O)c1ccccc1F)c1ccc(N2CCOCC2)cc1 [Example 137, 2-fluoro-N-(2-(4-morpholinophenyl)-2-oxoethyl)benzamide] | 1.19 | 1.231 |

| SMILES | fold induction at 1 µM (KAI1 promoter) | In vivo relative invation [1] |
| --- | --- | --- |
| O=C(CNC(=O)c1ccccc1Cl)c1ccc(N2CCOCC2)cc1 [Example 138, 2-chloro-N-(2-(4-morpholinophenyl)-2-oxoethyl)benzamide] | 1.15 | 1.258 |
| C/C=C/C(=O)NCC(=O)c1ccc(N2CCOCC2)cc1 [Example 139, (E)-N-(2-(4-morpholinophenyl)-2-oxoethyl)but-2-enamide] | 1.01 | 1.314 |
| COc1ccc(C(=O)NCC(=O)c2ccc(N3CCOCC3)cc2)cc1 [Example 140, 4-methoxy-N-(2-(4-morpholinophenyl)-2-oxoethyl)benzamide] | 1.15 | 1.553 |
| Cc1cccc(C(=O)NCC(=O)c2ccc(N3CCOCC3)cc2)c1 [Example 141, 3-methyl-N-(2-(4-morpholinophenyl)-2-oxoethyl)benzamide] | 1.06 | 1.393 |
| CCC(=O)NCC(=O)c1ccc(N2CCOCC2)cc1 [Example 142, N-(2-(4-morpholinophenyl)-2-oxoethyl)propionamide] | 1.12 | 1.8 |
| O=C(CNC(=O)C1CC1)c1ccc(N2CCOCC2)cc1 [Example 143, N-(2-(4-morpholinophenyl)-2-oxoethyl)cyclopropanecarboxamide] | 1.16 | 0.8028 |
| O=C(CNC(=O)C1CCC1)c1ccc(N2CCOCC2)cc1 [Example 144, N-(2-(4-morpholinophenyl)-2-oxoethyl)cyclobutanecarboxamide] | 1.08 | 1.284 |
| CCCCC(=O)NCC(=O)c1ccc(N2CCOCC2)cc1 [Example 145, N-(2-(4-morpholinophenyl)-2-oxoethyl)pentanamide] | 1.1 | 1.433 |
| O=C(CNS(=O)(=O)c1ccc(F)cc1)c1ccc(N2CCOCC2)cc1 [Example 146, 4-fluoro-N-(2-(4-morpholinophenyl)-2-oxoethyl)benzenesulfonamide] | 1.16 | 0.7474 |
| O=C(CNS(=O)(=O)c1ccc(Cl)cc1)c1ccc(N2CCOCC2)cc1 [Example 147, 4-chloro-N-(2-(4-morpholinophenyl)-2-oxoethyl)benzenesulfonamide] | 1.1 | 0.9524 |
| O=C(CNS(=O)(=O)c1ccccc1)c1ccc(N2CCOCC2)cc1 [Example 148, N-(2-(4-morpholinophenyl)-2-oxoethyl)benzenesulfonamide] | 1.44 | 1.844 |
| O=C(CNS(=O)(=O)Cc1ccccc1)c1ccc(N2CCOCC2)cc1 [Example 149, N-(2-(4-morpholinophenyl)-2-oxoethyl)-1-phenylmethanesulfonamide] | 1.07 | 1.261 |
| COc1ccc(S(=O)(=O)NCC(=O)c2ccc(N3CCOCC3)cc2)cc1 [Example 150, 4-methoxy-N-(2-(4-morpholinophenyl)-2-oxoethyl)benzenesulfonamide] | 1.14 | 1.071 |
| O=C(CNC(=O)c1ccccc1OC1CCN(C(=O)c2ccc(Cl)cc2)CC1)c1ccccc1 [Example 151, 2-((1-(4-chlorobenzoyl)piperidin-4-yl)oxy)-N-(2-oxo-2-phenylethyl)benzamide] | 1.05 | 1.212 |
| CC(Oc1ccccc1)C(=O)N1CCC(Oc2ccccc2C(=O)NCC(=O)c2ccccc2)CC1 (stereo not shown) [Example 152, N-(2-oxo-2-phenylethyl)-2-((1-(2-phenoxypropanoyl)piperidin-4-yl)oxy)benzamide] | 1.08 | 1.16 |
| O=C(CNC(=O)c1ccccc1OC1CCN(C(=O)c2ccccc2F)CC1)c1ccccc1 [Example 153, 2-((1-(2-fluorobenzoyl)piperidin-4-yl)oxy)-N-(2-oxo-2-phenylethyl)benzamide] | 1.05 | 1.095 |
| O=C(CNC(=O)c1ccccc1OC1CCN(C(=O)c2ccc(F)cc2)CC1)c1ccccc1 [Example 154, 2-((1-(4-fluorobenzoyl)piperidin-4-yl)oxy)-N-(2-oxo-2-phenylethyl)benzamide] | 1.05 | 1.173 |
| O=C(CNC(=O)c1ccccc1OC1CCN(C(=O)c2ccco2)CC1)c1ccccc1 [Example 155, 2-((1-(furan-2-carbonyl)piperidin-4-yl)oxy)-N-(2-oxo-2-phenylethyl)benzamide] | 0.99 | 1.151 |
| O=C(CNC(=O)c1ccccc1OC1CCN(C(=O)c2ccccc2Cl)CC1)c1ccccc1 [Example 156, 2-((1-(2-chlorobenzoyl)piperidin-4-yl)oxy)-N-(2-oxo-2-phenylethyl)benzamide] | 0.99 | 1.158 |
| O=C(CNC(=O)c1ccccc1OC1CCN(C(=O)c2cccc(Cl)c2)CC1)c1ccccc1 [Example 157, 2-((1-(3-chlorobenzoyl)piperidin-4-yl)oxy)-N-(2-oxo-2-phenylethyl)benzamide] | 1.05 | 1.089 |
